Patent publication US20260139007A1, “EPHA4 ANTAGONISTS AND USES THEREOF” (SANFORD BURNHAM PREBYS MEDICAL DISCOVERY INSTITUTE, priority 2023, published 2026)
Values joined by “and” are separate entries in the source; they are usually repeats but may differ in a detail not shown here. Identical values can stand only once. Like-named read-outs stand apart in the source and are kept apart here. Marks after values point to notes of the source that are not given here. One block for each compound: values may come before it. Numbered stars: 1 amine (or outer) side, 2 acyl side, 3 side chain; on linkers, the order of the positions; unused ones are H or OH. Bridge positions count the residues as written; N and C are the ends. Square brackets hold non-standard residues; d marks the D form. Side chains are listed from the residue outwards. Peptide text beside a SMILES is read from it. * marks the point of attachment. γGlu = O=C(O)[C@H](CCC(=O)[*:2])N[*:1]; βAsp = O=C(O)[C@H](CC(=O)[*:2])N[*:1]; Palmitoyl = CCCCCCCCCCCCCCCC(=O)*; Lauroyl = CCCCCCCCCCCC(=O)*; Octanoyl = CCCCCCCC(=O)*; βAla = NCCC(=O)O

Columns and labels:
[1] = target: EphA4 Fc; experiment: ELISA measuring inhibition of ephrin-A5 AP binding to immobilized EphA4 Fc; set-up: species or system human or mouse
[2] = In vivo half-life: active compound remaining in mouse blood, deduced from apparent IC50 of plasma in the EphA4-ephrinA5 ELISA; details: for half-life: in vivo, read-out: In vivo half-life (converted)
Protocol: To examine the persistence of compounds in the blood circulation, an approach was devised to determine the concentration of compound in mouse blood by taking advantage of the ELISA measuring inhibition of EphA4-ephrinA5 interaction.
Lipidated compounds dissolved in DMSO were diluted in […] PBS (to a 5% final DMSO concentration) or in […] PBS supplemented with 20 or 40 mg/mL BSA or 6.5 mM methyl-β-cyclodextrin for intravenous or intraperitoneal injection. Neutral pH of the compound solution was verified before injection. PEGylated compounds were dissolved in […] PBS before intraperitoneal injection. Peptides were sterile filtered before administration. Blood from each mouse was collected at 3 different time points after compound injection, the first 2 times by retro-orbital bleeding and the third time by terminal cardiac bleeding under deep anesthesia. Red blood cells were removed by centrifugation from blood treated with heparin and the resulting plasma was frozen in aliquots.
For each time point, a dose-response curves by measuring inhibition of EphA4-ephrinA5 binding at different plasma dilutions was obtained.

[3] = tested on: EphA4 Fc; experiment: ELISA inhibition of ephrin-A5 AP binding to EphA4 Fc in the presence of HSA, BSA or methyl-β-cyclodextrin; details: for effect of HSA on potency: presence vs absence of 40 mg/mL HSA, tested in parallel; for IC50: read-out: IC50 ± SE (n) by ELISA with HSA or BSA, 40 mg/mL delipidated HSA
Excerpt: To determine whether albumin binding to the lipidated compounds affects their ability to bind EphA4, the effects of delipidated human serum albumin (HSA) on the inhibitory potency of some of the compounds were examined.

[4] = inhibition of ephrin-A5 AP binding to EphA4 Fc, averages of all experiments, read-out: IC50 ± SE (n) by ELISA
[5] = mouse, ip, mouse, IP (intraperitoneal administration)
[6] = mouse, iv, mouse, IV (intravenous administration)

IC50 [1, 4]: 110 ± 10 nM
Compound: CCCCCCCCCCCC(=O)N[C@@H](CC(=O)NCCCC[C@@H]1NC(=O)[C@H](Cc2ccc(O)cc2)NC(=O)[C@H](C(C)C)NC(=O)[C@@H](NC(=O)[C@H](Cc2ccc(O)cc2)NC(=O)[C@@H]2CCCN2C(=O)CCN)CSSC[C@@H](C(N)=O)NC(=O)[C@H](CO)NC(=O)[C@H](Cc2c[nH]c3ccccc23)NC(=O)[C@H](CO)NC(=O)CCNC1=O)C(=O)O [Compound 10, βAPYCVYK(lauroyl-βD)βASWSC-NH2] (H-[βAla]PYCVYK([βAsp-Lauroyl])[βAla]SWSC-NH2; disulfide 4-12)

effect of HSA on potency [3]: only a very small effect
Compound: CC(C)[C@@H]1NC(=O)[C@@H](NC(=O)[C@H](Cc2ccc(O)cc2)NC(=O)[C@@H]2CCCN2C(=O)[C@H](C)N)CSSC[C@@H](C(=O)NCC(=O)NCC(=O)N[C@@H](CCCCN)C(=O)NCC(N)=O)NC(=O)[C@H](CO)NC(=O)[C@H](Cc2c[nH]c3ccccc23)NC(=O)[C@H](CO)NC(=O)CCNC(=O)[C@H](CCCNC(=N)N)NC(=O)[C@H](Cc2ccc(O)cc2)NC1=O [Compound 2]
potency compared with APY-d2 ([1]; tested in parallel in the same ELISA): not significantly different from that for APY-d2

IC50 [1, 4]: 49 ± 11 nM
Compound: CCCCCCCCCCCC(=O)N[C@@H](CC(=O)NCCCC[C@H](NC(=O)CNC(=O)CNC(=O)[C@@H]1CSSC[C@H](NC(=O)[C@H](Cc2ccc(O)cc2)NC(=O)[C@@H]2CCCN2C(=O)CCN)C(=O)N[C@@H](C(C)C)C(=O)N[C@@H](Cc2ccc(O)cc2)C(=O)N[C@@H](CCCNC(=N)N)C(=O)NCCC(=O)N[C@@H](CO)C(=O)N[C@@H](Cc2c[nH]c3ccccc23)C(=O)N[C@@H](CO)C(=O)N1)C(=O)NCC(N)=O)C(=O)O [Compound 13]

less potent than compound 15 [1]: 5-6 fold
IC50 [1, 4]: 160 ± 30 nM
better potency compared to compound 18 (single γGlu) ([1]; two γGlu residues vs single γGlu, palmitoyl): ~3 fold
half-life [2, 5]: 60 to 90 min
half-life [2, 6]: ~48 min
Compound: CCCCCCCCCCCCCCCC(=O)N[C@@H](CCC(=O)N[C@@H](CCC(=O)NCCCC[C@H](NC(=O)CNC(=O)CNC(=O)[C@@H]1CSSC[C@H](NC(=O)[C@H](Cc2ccc(O)cc2)NC(=O)[C@@H]2CCCN2C(=O)CCN)C(=O)N[C@@H](C(C)C)C(=O)N[C@@H](Cc2ccc(O)cc2)C(=O)N[C@@H](CCCNC(=N)N)C(=O)NCCC(=O)N[C@@H](CO)C(=O)N[C@@H](Cc2c[nH]c3ccccc23)C(=O)N[C@@H](CO)C(=O)N1)C(=O)NCC(N)=O)C(=O)O)C(=O)O [Compound 19]

IC50 [1, 4]: 52 ± 10 nM
FOLD INCREASE IN APPARENTIC IC COMPARED TO CONTROL ([2]; 0 minutes (control)): 1.0 fold
IC50 ([2]; 0 minutes: control, compound diluted in plasma in vitro): 81 nM
% PEPTIDE 14 REMAINING IN THE BLOOD ([2]; 0 minutes, ESTIMATED (all injected compound in 2.5 mL blood)): 100* %
FOLD INCREASE IN APPARENTIC IC COMPARED TO CONTROL ([2]; 60 minutes after intraperitoneal injection): 2.1 fold
% PEPTIDE 14 REMAINING IN THE BLOOD ([2]; 60 minutes after intraperitoneal injection, MEASURED): 48.2%
FOLD INCREASE IN APPARENTIC IC COMPARED TO CONTROL ([2]; 120 minutes after intraperitoneal injection): 5 fold and 4.6 fold
% PEPTIDE 14 REMAINING IN THE BLOOD ([2]; 120 minutes after intraperitoneal injection, MEASURED): 20% and 21.8%
FOLD INCREASE IN APPARENTIC IC COMPARED TO CONTROL ([2]; 240 minutes after intraperitoneal injection): 22.5 fold
% PEPTIDE 14 REMAINING IN THE BLOOD ([2]; 240 minutes after intraperitoneal injection, MEASURED): 4.5%
half-life [2, 5]: 30 to 60 min
half-life [2, 6]: 30 to 42 min
IC50 ([2]; plasma 60 minutes after intraperitoneal injection, mouse): 168 nM
IC50 ([2]; plasma 120 minutes after intraperitoneal injection, mouse): 371 nM
IC50 ([2]; plasma 240 minutes after intraperitoneal injection, mouse): 1820 nM
Compound: CCCCCCCCCCCC(=O)N[C@@H](CCC(=O)NCCCC[C@H](NC(=O)CNC(=O)CNC(=O)[C@@H]1CSSC[C@H](NC(=O)[C@H](Cc2ccc(O)cc2)NC(=O)[C@@H]2CCCN2C(=O)CCN)C(=O)N[C@@H](C(C)C)C(=O)N[C@@H](Cc2ccc(O)cc2)C(=O)N[C@@H](CCCNC(=N)N)C(=O)NCCC(=O)N[C@@H](CO)C(=O)N[C@@H](Cc2c[nH]c3ccccc23)C(=O)N[C@@H](CO)C(=O)N1)C(=O)NCC(N)=O)C(=O)O [Compound 14]

More lines, now with the values behind:

Compound: CCCCCCCCCCCCCCCC(=O)N[C@@H](CCC(=O)NCCCC[C@@H]1NC(=O)[C@H](Cc2ccc(O)cc2)NC(=O)[C@H](C(C)C)NC(=O)[C@@H](NC(=O)[C@H](Cc2ccc(O)cc2)NC(=O)[C@@H]2CCCN2C(=O)CCN)CSSC[C@@H](C(N)=O)NC(=O)[C@H](CO)NC(=O)[C@H](Cc2c[nH]c3ccccc23)NC(=O)[C@H](CO)NC(=O)CCNC1=O)C(=O)O [Compound 17, βAPYCVYK(palmitoyl-γE)BASWSC-NH2] (H-[βAla]PYCVYK([γGlu-Palmitoyl])[βAla]SWSC-NH2; disulfide 4-12)
IC50 [1, 4]: 2300 nM

Compound: CCCCCCCCCCCCCCCC(=O)N[C@@H](CCC(=O)NCCCC[C@H](NC(=O)CNC(=O)CNC(=O)[C@@H]1CSSC[C@H](NC(=O)[C@H](Cc2ccc(O)cc2)NC(=O)[C@@H]2CCCN2C(=O)CCN)C(=O)N[C@@H](C(C)C)C(=O)N[C@@H](Cc2ccc(O)cc2)C(=O)N[C@@H](CCCNC(=N)N)C(=O)NCCC(=O)N[C@@H](CO)C(=O)N[C@@H](Cc2c[nH]c3ccccc23)C(=O)N[C@@H](CO)C(=O)N1)C(=O)NCC(N)=O)C(=O)O [Compound 18]
IC50 [1, 4]: 520 ± 80 nM
half-life [2, 5]: 60 to 90 min
half-life [2, 6]: ~48 min

Compound: CC(C)[C@@H]1NC(=O)[C@@H](NC(=O)[C@H](Cc2ccc(O)cc2)NC(=O)[C@@H]2CCCN2C(=O)[C@H](C)N)CSSC[C@@H](C(N)=O)NC(=O)[C@H](CO)NC(=O)[C@H](Cc2c[nH]c3ccccc23)NC(=O)[C@H](CO)NC(=O)CCNC(=O)[C@H](CCCCN)NC(=O)[C@H](Cc2ccc(O)cc2)NC1=O [Compound 1, APYCVYKβASWSC-NH2] (H-APYCVYK[βAla]SWSC-NH2; disulfide 4-12)
IC50 [1, 4]: 67 ± 10 nM
effect of HSA on potency [3]: only a very small effect
IC50 [3]: 55 ± 13 nM

Compound: CCCCCCCC(=O)NCCCC[C@@H]1NC(=O)[C@H](Cc2ccc(O)cc2)NC(=O)[C@H](C(C)C)NC(=O)[C@@H](NC(=O)[C@H](Cc2ccc(O)cc2)NC(=O)[C@@H]2CCCN2C(=O)CCN)CSSC[C@@H](C(N)=O)NC(=O)[C@H](CO)NC(=O)[C@H](Cc2c[nH]c3ccccc23)NC(=O)[C@H](CO)NC(=O)CCNC1=O [Compound 4, βAPYCVYK(octanoyl)βASWSC-NH2] (H-[βAla]PYCVYK(Octanoyl)[βAla]SWSC-NH2; disulfide 4-12)
IC50 [3]: 100 ± 30 nM

Compound: CCCCCCCCCCCCCCCC(=O)N[C@@H](CCC(=O)N[C@@H](CCC(=O)NCCCC[C@H](NC(=O)[C@H](CO)NC(=O)CNC(=O)CNC(=O)CNC(=O)[C@@H]1CSSC[C@H](NC(=O)[C@H](Cc2ccc(O)cc2)NC(=O)[C@@H]2CCCN2C(=O)CCN)C(=O)N[C@@H](C(C)C)C(=O)N[C@@H](Cc2ccc(O)cc2)C(=O)N[C@@H](CCCNC(=N)N)C(=O)NCCC(=O)N[C@@H](CO)C(=O)N[C@@H](Cc2c[nH]c3ccccc23)C(=O)N[C@@H](CO)C(=O)N1)C(=O)NCC(N)=O)C(=O)O)C(=O)O [Compound 20] (H-[βAla]PYCVYR[βAla]SWSCGGGSK([γGlu-γGlu-Palmitoyl])G-NH2; disulfide 4-12)
IC50 [1, 4]: 190 ± 20 nM

Compound: CCCCCCCC(=O)NCCCC[C@H](NC(=O)CNC(=O)CNC(=O)[C@@H]1CSSC[C@H](NC(=O)[C@H](Cc2ccc(O)cc2)NC(=O)[C@@H]2CCCN2C(=O)CCN)C(=O)N[C@@H](C(C)C)C(=O)N[C@@H](Cc2ccc(O)cc2)C(=O)N[C@@H](CCCNC(=N)N)C(=O)NCCC(=O)N[C@@H](CO)C(=O)N[C@@H](Cc2c[nH]c3ccccc23)C(=O)N[C@@H](CO)C(=O)N1)C(=O)NCC(N)=O [Compound 7]
IC50 [1, 4]: 34 ± 6 nM
IC50 [3]: 110 ± 30 nM

Compound: CCCCCCCCCCCC(=O)NCCCC[C@@H]1NC(=O)[C@H](Cc2ccc(O)cc2)NC(=O)[C@H](C(C)C)NC(=O)[C@@H](NC(=O)[C@H](Cc2ccc(O)cc2)NC(=O)[C@@H]2CCCN2C(=O)CCN)CSSC[C@@H](C(N)=O)NC(=O)[C@H](CO)NC(=O)[C@H](Cc2c[nH]c3ccccc23)NC(=O)[C@H](CO)NC(=O)CCNC1=O [Compound 8, βAPYCVYK(lauroyl)βASWSC-NH2] (H-[βAla]PYCVYK(Lauroyl)[βAla]SWSC-NH2; disulfide 4-12)
IC50 [1, 4]: 390 ± 80 nM

Compound: βAPYCVYRβASWSC-linker2-PEG (XPYCVYRXSWSCXXK; not fully specified; non-natural residues; cyclised or stapled) [APY-d3-PEG2]
potency compared with APY-d3 ([1]; ELISA inhibition of EphA4-ephrin-A5 interaction): several fold less potent than non-PEGylated APY-d3
IC50 ([1]; ELISA inhibition of EphA4-ephrin-A5 interaction, read-out: IC50 (approximate)): ~80 nM

Compound: CCCCCCCCCCCC(=O)N[C@@H](CCC(=O)NCCCC[C@@H]1NC(=O)[C@H](Cc2ccc(O)cc2)NC(=O)[C@H](C(C)C)NC(=O)[C@@H](NC(=O)[C@H](Cc2ccc(O)cc2)NC(=O)[C@@H]2CCCN2C(=O)CCN)CSSC[C@@H](C(N)=O)NC(=O)[C@H](CO)NC(=O)[C@H](Cc2c[nH]c3ccccc23)NC(=O)[C@H](CO)NC(=O)CCNC1=O)C(=O)O [Compound 11, βAPYCVYK(lauroyl-γE)βASWSC-NH2] (H-[βAla]PYCVYK([γGlu-Lauroyl])[βAla]SWSC-NH2; disulfide 4-12)
IC50 [1, 4]: 84 ± 13 nM
half-life [2, 5]: 30 to 60 min
